# Laboratory results: patent US20230277508A1, “USE OF COMPOUND AS CYP2E1 INHIBITOR” (SHANGHAI LING XI BIOTECHNOLOGY DEVELOPMENT CO., LTD., priority 2020, published 2023)
# Marks after values point to notes of the source that are not given here.
# Legend:
# [1] = system: LPS-induced pulmonary fibrosis in mice; assay: LPS-induced mouse pulmonary fibrosis model; type: in vivo, C57BL/6N mouse
# Procedure: Experimental method: A C57BL/6N mouse pulmonary fibrosis model was established through intratracheal instillation with 8 mg/kg LPS. An SMI0 intervention group was divided into a low-dose group and a high-dose group, which were intragastrically administered with the compound SMI0 respectively at 30 mg/kg and 90 mg/kg every day from three days before modeling to the end of the 28-d modeling (control group, n=8; model group, n=8; and SMI0 compound high-dose group, n=8). At the end of the experiment, a body weight of mice in each group was recorded, blood was collected from the orbit, the mice were sacrificed, and lung tissues were collected and weighed. The left lungs were fixed in 4% formalin and subjected to HE and Masson staining, and the lung tissues were subjected to fibrosis grading and fibrosis and histological scoring to reflect a severity of pulmonary fibrosis.
# Experimental method: An ammonium molybdate method and a microplate method were used to treat a mouse lung tissue homogenate, and changes of oxidative stress indexes CAT and GSH in the lung tissue of mice in each group were detected. Expression levels of […] and α-SMA in the mouse lung tissue were evaluated through immunohistochemical staining, and a positive area percentage was counted by Image-Pro Plus software. Expression levels of the epithelial cell marker E-cadherin, the apoptosis-associated protein Bax, and the anti-apoptotic protein Bcl-2 were detected by WB.
# CYP2E1 = target: T1, CYP2E1 (Mus musculus, UniProt Q05421); assay: CYP2E1 activity (liver microsome) in mouse Lewis lung cancer in situ model; type: in vivo; details: SMI0 intervention group vs model group, P<0.05
# T1 construct: from tissue; host or cells: liver microsomes of treated model mice (calcium precipitation)
# Procedure: Experimental method: A calcium precipitation method was used to prepare a mouse liver microsome, and a Braford method was used to determine a protein concentration in the microsome. An incubation system was prepared with 2×PBS, a CZX solution, and the liver microsome at a final concentration of 0.5 mg/mL, and then pre-incubated at 37° C. for 5 min; NADPH was added to initiate a reaction, and a resulting mixture was incubated at 37° C. for 30 min and then placed on ice to terminate the reaction; and ethyl acetate was added to extract 6-hydroxychlorzoxazone, a resulting mixture was vortexed and centrifuged, and a resulting upper organic phase was collected and blow-dried with nitrogen. A peak area of a CZX metabolite 6-hydroxychlorzoxazone was detected by HPLC under the following conditions: methanol:water=56:44, and detection wavelength: 287 nm. A concentration A C of the metabolite 6-hydroxychlorzoxazone was calculated through substitution into a standard curve; and a reaction rate of conversion of CZX into 6-hydroxychlorzoxazone was calculated according to V(pmol/min/mg)=(ΔC*1000)/(B*T) to evaluate an enzymatic activity of CYP2E1, where B represents a protein concentration of the microsome (mg/mL) and T represents an incubation time (min). A correlation between CYP2E1 activity and lung tumor weight in the Lewis lung cancer in situ model was analyzed.
# [2] = system: B16-F10 cell lung metastasis; assay: Lung metastasis model, tail vein injection of melanoma cell B16-F10; type: in vivo, C57BL/6 mouse; details: SMI0 30 mg/kg, 14 days
# Procedure: Experimental method: A female C57BL/6 mouse lung metastasis model was constructed through tail vein injection of a melanoma cell B16-F10, with a cell amount of 8*10^5. Mice were divided into a control group, a model group, and an SMI0 intervention group, and the modeling took 14 days (control group, n=5; model group, n=5; and SMI0 (30 mg/kg), n=4). At the end of the experiment, a body weight of mice in each group was recorded, blood was collected from the orbit, the mice were sacrificed, and lung tissues were collected and weighed. The lung tissues were fixed in a formalin solution for 24 h, and a number of lung nodules of mice in each group was recorded.
# H22 liver cancer cells = assay: Direct effect on H22 liver cancer cells; type: cell-based; details: up to 100 μmol/L, 24 h
# Procedure: Experimental method: HepG2 liver cancer cells and H22 liver cancer cells in a logarithmic growth phase each were selected and inoculated into a 96-well plate at a concentration of 1*10^5 cells/mL, and then 100 μL of a basic medium including SMI0 at different concentrations (0 μmol/L, 0.16 μmol/L, 0.8 μmol/L, 4 μmol/L, 20 μmol/L, and 100 μmol/L) was added to each well; and 24 h later, the proliferation activity of HepG2 was determined by a CCK8 method, a migration ability of HepG2 was determined by wound-healing assay, and an apoptosis ability of HepG2 was determined by flow cytometry (FCM).
# [3] = system: glioma cell line GL261 brain in situ transplanted tumor; assay: Mouse glioma model, in situ implantation of GL261 cells into the brain; type: in vivo, C57/BL6 mouse
# Procedure: Experimental method: A female C57/BL6 mouse glioma model was constructed through in situ implantation of a glioma cell line GL261, with a cell concentration of 1*10^6. Experimental groups: sham-operated group (n=9); model group (n=10); temozolomide group (50 mg/kg, ig, n=11); SMI0 low-dose group (3.3 mg/kg, ig, n=13); SMI0 medium-dose group (10 mg/kg, ig, n=13); and SMI0 high-dose group (30 mg/kg, ig, n=13). The SMI0 intervention group was intragastrically administered with the compound SMI0 every day starting from three days before modeling, and the positive drug group was administered on day 3 to day 7 and day 10 to day 14 after surgery. The modeling took about 21 days. At the end of the experiment, blood was collected from the orbit, a body weight was measured, then the mice each were sacrificed, and brain tissues were collected. Brain tissue specimens were subjected to HE staining, and then the brain tissue lesion and tumorigenesis of mice in each group were observed.
# [4] = system: hyperlipidemia and aortic atherosclerotic plaques in ApoE-/- mice; assay: ApoE-/- mouse hyperlipidemia model induced by a high-fat diet; type: in vivo; details: for High-density lipoprotein / Low-density lipoprotein / Total cholesterol / Triglyceride: serum, 16 weeks, n=8
# Procedure: Experimental method: ApoE^−/− mice were fed with a high-fat and high-cholesterol feed to construct an ApoE^−/− mouse hyperlipidemia model. An SMI0 intervention group was divided into a low-dose intervention group and a high-dose intervention group, which were administered with the compound SMI0 at 30 mg/kg and 150 mg/kg every day from the beginning of modeling to the end of the 16-week modeling. At the end of the experiment, blood was collected from the orbit, and the levels of blood lipid-associated indexes in the serum of each mouse were determined by an automatic biochemical analyzer (8 mice in each group).
# [5] = SMI0 intervention group vs model group, P<0.01
# T1 sequence (Q05421 whole entry): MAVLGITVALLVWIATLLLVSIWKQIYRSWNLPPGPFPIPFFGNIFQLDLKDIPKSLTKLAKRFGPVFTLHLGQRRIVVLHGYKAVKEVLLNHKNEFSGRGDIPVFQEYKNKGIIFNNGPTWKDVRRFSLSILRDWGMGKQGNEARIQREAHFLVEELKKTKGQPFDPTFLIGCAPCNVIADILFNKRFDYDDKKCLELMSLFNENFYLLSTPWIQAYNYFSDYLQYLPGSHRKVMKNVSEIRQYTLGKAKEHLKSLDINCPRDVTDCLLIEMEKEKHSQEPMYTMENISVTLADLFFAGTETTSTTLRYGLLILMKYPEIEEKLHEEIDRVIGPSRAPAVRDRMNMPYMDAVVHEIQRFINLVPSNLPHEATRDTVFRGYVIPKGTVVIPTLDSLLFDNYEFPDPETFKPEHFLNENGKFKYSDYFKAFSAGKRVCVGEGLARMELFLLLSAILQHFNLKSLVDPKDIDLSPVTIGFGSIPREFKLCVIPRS
compound,measurement,setting,value
CC(=O)c1scnc1C [SMI0],lung index,"[1]; SMI0 intervention group (30, 90 mg/kg ig daily, 28 d) vs model group",significantly reduced
same,immunostaining-positive area percentage of TGF-β 1,[1]; [5],significantly reduced
same,immunostaining-positive area percentage of α-SMA,[1]; [5],significantly reduced
same,oxidative stress index CAT level in lung tissue,[1]; [5],significantly increased
same,pathological inflammatory cell infiltration,"[1]; SMI0 intervention group, 28 d",no obvious pathological inflammatory cell infiltration
same,Bcl-2 level,"[1]; WB, SMI0 intervention group vs model group, P<0.001",significantly increased
same,Bax level,"[1]; WB, SMI0 intervention group vs model group, P<0.01",significantly reduced
same,epithelial cell marker E-cadherin level,"[1]; WB, SMI0 intervention group vs model group, P<0.05",significantly increased
same,CYP2E1 activity,CYP2E1,significantly reduced
same,lung weight,[2]; vs model group,significantly reduced
same,number of nodules,[2]; vs model group,significantly reduced
same,tumor proliferation inhibition rate,[2]; as high as,58.3%
same,"effect on the proliferation, migration, and apoptosis of H22 liver cancer cells",H22 liver cancer cells,no significant inhibitory effect
same,glioma growth in mice,"[3]; SMI0 intervention (3.3, 10, 30 mg/kg ig daily), about 21 days, vs model group",significantly inhibited
same,tumor proliferation inhibition rate,"[3]; as high as, SMI0 high-dose group 30 mg/kg ig",97.6%
same,total area of aortic root lesions (HE staining),"[4]; SMI0 high-dose group 150 mg/kg vs model group, P<0.01",significantly reduced
same,total area of aortic root lesions (oil red O staining),"[4]; SMI0 high-dose group 150 mg/kg vs model group, P<0.05",significantly reduced
same,High-density lipoprotein,[4]; SMI0 30 mg/kg daily,2.37 ± 0.49 mmol/L
same,Low-density lipoprotein,[4]; SMI0 30 mg/kg daily,17.94 ± 11.16 mmol/L
same,Total cholesterol,[4]; SMI0 30 mg/kg daily,20.45 ± 10.77 mmol/L
same,Triglyceride,[4]; SMI0 30 mg/kg daily,0.56 ± 0.04 mmol/L
same,High-density lipoprotein,[4]; SMI0 150 mg/kg daily,3.68 ± 0.33*^@ mmol/L
same,Low-density lipoprotein,[4]; SMI0 150 mg/kg daily,1.50 ± 0.77^@ mmol/L
same,Total cholesterol,[4]; SMI0 150 mg/kg daily,5.35 ± 0.55^@ mmol/L
same,Triglyceride,[4]; SMI0 150 mg/kg daily,0.40 ± 0.10 mmol/L
